The results in this text go back to patent publication US10947237B2, “Antimicrobial compounds and methods of making and using the same” (BIOVERSYS AG, priority 2015, dated 2021).

One may read the MIC as the lowest concentration found to suppress growth. A lower MIC goes with greater potency.

For assay [1], the system named is Staphylococcus aureus (S. aureus) 11540 strain. As to the kind of experiment: standard microdilution assay, minimum inhibitory concentration (MIC). Format: cell-based. Put shortly: (§1)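 MICs were determined by broth microdilution per CLSI protocols (M7-A8, M100-S20), with reference strains run for quality control. Tested strains were E. coli ATCC25922 and S. aureus 11540. Activity was scored +/− against a 16 µg/mL cutoff.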
(In general: In broth dilution the organism is exposed to a series of concentrations in liquid medium.)

Assay [2] concerns Eschericia coli (E. Coli) strain ATCC25922. Described as above. To be noted: Escherichia coli. The format is cell-based. Put shortly: as §1

With `C[C@H](NCCCNC(=N)N)c1ccc(-n2cc3cc(-c4cc([C@@H]5CC[C@H](CN)O5)cc(Cl)c4F)[nH]c3nc2=O)cc1` [Compound 149], the MIC in assay [1] (Table 2, 11540 strain) was not above 16 µg/mL; in assay [2] (Table 2, strain ATCC25922) it was not above 16 µg/mL.

Take `C[C@H](N)CCCc1cc(Cl)c(F)c(-c2cc3cn(-c4ccc([C@@H]5CCC[C@@H](CCNC(=N)CCl)N5)cc4)c(=O)nc3[nH]2)c1` [Compound 86]: the MIC in assay [1] (Table 2, 11540 strain) is not above 16 µg/mL; in assay [2] (Table 2, strain ATCC25922), not above 16 µg/mL.

With `C[C@H](N)CCCc1cc(Cl)c(F)c(-c2cc3cn(-c4ccc([C@@H]5N[C@@H](CCNC(=N)N)CCO5)cc4)c(=O)nc3[nH]2)c1` [Compound 32], the MIC is not above 16 µg/mL in assay [1] (Table 2, 11540 strain) and not above 16 µg/mL in assay [2] (Table 2, strain ATCC25922).

Take `C[C@H](N)CCCc1cc(Cl)c(F)c(-c2cc3cn(-c4ccc(CO[C@@H](CO)CCNC(=N)N)cc4)c(=O)nc3[nH]2)c1` [Compound 71]: the MIC in assay [1] (Table 2, 11540 strain) is not above 16 µg/mL; in assay [2] (Table 2, strain ATCC25922), not above 16 µg/mL.

For the molecule `Cc1ccnc(NC[C@@H](CCNC(=N)N)NCc2ccc(-n3cc4cc(-c5cc(CCC[C@H](C)N)cc(Cl)c5F)[nH]c4nc3=O)cc2)c1` [Compound 14], the MIC in assay [1] (Table 2, 11540 strain) was not above 16 µg/mL; in assay [2] (Table 2, strain ATCC25922), not above 16 µg/mL.

As to `CC(=N)NCC[C@H]1CC(N)C[C@H](c2ccc(-n3cc4cc(-c5cc(CCC[C@H](C)N)cc(Cl)c5F)[nH]c4nc3=O)cc2)O1` (stereo partly shown) [Compound 120], the MIC is not above 16 µg/mL in assay [1] (Table 2, 11540 strain) and not above 16 µg/mL in assay [2] (Table 2, strain ATCC25922).

`C[C@H](N)CCCc1cc(Cl)c(F)c(-c2cc3cn(-c4ccc(CN[C@H](CCNC(=N)N)CNc5cnccn5)cc4)c(=O)nc3[nH]2)c1` [Compound 48]: the MIC is not above 16 µg/mL in assay [1] (Table 2, 11540 strain) and not above 16 µg/mL in assay [2] (Table 2, strain ATCC25922).

Take `C[C@H](N)CCCc1cc(Cl)c(F)c(-c2cc3cn(-c4ccc(CN[C@H](CCNC(=N)N)CNc5ccccn5)cc4)c(=O)nc3[nH]2)c1` [Compound 21]: the MIC is not above 16 µg/mL in assay [1] (Table 2, 11540 strain) and not above 16 µg/mL in assay [2] (Table 2, strain ATCC25922).

As to `CC(=N)NCC[C@H](CNC(=N)N)OCc1ccc(-n2cc3cc(-c4cc(CCC[C@H](C)N)cc(Cl)c4F)[nH]c3nc2=O)cc1` [Compound 171], the MIC in assay [1] (Table 2a) is not above 16 µg/mL; in assay [2] (ATCC25922, Table 2a) it was not above 16 µg/mL.

As to `C[C@H](N)CCCc1cc(Cl)c(F)c(-c2cc3cn(-c4ccc([C@@H]5CCC[C@@H](CNCc6c[nH]nn6)N5)cc4)c(=O)nc3[nH]2)c1` [Compound 18], the MIC in assay [1] (Table 2, 11540 strain) was more than 16 µg/mL; in assay [2] (Table 2, strain ATCC25922), more than 16 µg/mL.

Take `C[C@H](N)CCCc1cc(Cl)c(F)c(-c2cc3cn(-c4ccc([C@H]5CCC[C@H](CCNc6ncccn6)N5)cc4)c(=O)nc3[nH]2)c1` [Compound 26]: the MIC was not above 16 µg/mL in assay [1] (Table 2, 11540 strain) and more than 16 µg/mL in assay [2] (Table 2, strain ATCC25922).

With `COC[C@H](N)CCCc1cc(OC(F)(F)F)c(F)c(-c2cc3cn(-c4ccc(CO[C@H](CCNC(C)=N)CNC(C)=N)cc4)c(=O)nc3[nH]2)c1` [Compound 161], the MIC in assay [1] (Table 2a) is not above 16 µg/mL; in assay [2] (ATCC25922, Table 2a), not above 16 µg/mL.

Turning to `C[C@H](N)CCCc1cc(Cl)c(F)c(-c2cc3cn(-c4ccc(CO[C@@H](CF)CCNC(=N)N)cc4)c(=O)nc3[nH]2)c1` [Compound 135], the MIC in assay [1] (Table 2, 11540 strain) was not above 16 µg/mL; in assay [2] (Table 2, strain ATCC25922) it was not above 16 µg/mL.

As to `C[C@H](N)CCCc1cc(Cl)c(F)c(-c2cc3cn(-c4ccc([C@H]5N[C@H](CCNC(=N)N)CCO5)cc4)c(=O)nc3[nH]2)c1` [Compound 31], the MIC in assay [1] (Table 2, 11540 strain) is not above 16 µg/mL; in assay [2] (Table 2, strain ATCC25922) it was not above 16 µg/mL.
